# Experimental data published in patent US8501757B2, “Substituted phenylamine carboxamide analogs as mGluR5 negative allosteric modulators and methods of making and using the same” (priority 2009, dated 2013).
# Where two headings read alike, the source gives them in different places.
# Key:
# rat mGluR5 [1] = biological target: T1, rat mGluR5 (Rattus norvegicus, UniProt P31424); assay: cell-based
# Experimental: (§1) Human embryonic kidney (HEK) cells transfected with rat mGluR5 were plated in clear bottom assay plates for assay in a Functional Drug Screening System (FDSS). The cells were loaded with a Ca2+-sensitive fluorescent dye (e.g., Fluo-4), and the plates were washed and placed in the FDSS instrument. Test compound was applied to cells 3 seconds after baseline readings were taken. Cells were incubated with the test compounds for 140 seconds and then stimulated with an EC20 concentration of an mGluR5 agonist (e.g., glutamate, 3,5-dihydroxyphenylglycine, or quisqualate); 60 seconds later an EC80 concentration of agonist was added and readings taken for an additional 40 seconds. Data were collected at 1 Hz. […] Concentration response curves were generated using a four parameter logistical equation.
# (§2) The above described assay was operated in two modes. In the first mode (utilizing a triple add protocol), a range of concentrations of the present compounds were added to cells, followed by two single fixed concentrations of agonist (EC20 followed by EC80). If a compound acted as a potentiator, an EC50 value for potentiation and a maximum extent of potentiation by the compound at this concentration of agonist was determined by non-linear curve fitting. If a compound acted as an antagonist, an IC50 value for antagonism and a maximum extent of antagonism by the compound at this concentration of agonist was determined by non-linear curve fitting. In the second mode (utilizing a double add protocol), several fixed concentrations of the present compounds were added to various wells on a plate, followed by a range of concentrations of agonist for each concentration of present compound; the EC50 values for the agonist at each concentration of compound were determined by non-linear curve fitting. A decrease in the EC50 value of the agonist with increasing concentrations of the present compounds (a leftward shift of the agonist concentration-response curve) is an indication of the degree of mGluR5 positive allosteric modulation at a given concentration of the present compound. An increase in the EC50 value of the agonist with increasing concentrations of the present compounds (a rightward shift of the agonist concentration-response curve) is an indication of the degree of mGluR5 antagonism at a given concentration of the present compound. The second mode also indicates whether the present compounds also affect the maximum response to mGluR5 to agonists.
# (§3) The mGluR5 activity was determined using the metabotropic glutamate receptor activity assays in human embryonic kidney cells as described herein, wherein the human embryonic kidney cells were transfected with rat mGluR5. The mGluR5 activity data for some compounds are shown as the average of at least three experiments with the standard error in these cases. If no error is indicated for the mGluR5 activity, the values given represent the results from a single experiment or the average of two experiments.
# (§4) The cells were loaded with a Ca2+-sensitive fluorescent dye (e.g., Fluo-4), and the plates were washed and placed in the FDSS instrument. Test compound was applied to cells 3 seconds after baseline readings were taken. Cells were incubated with the test compounds for 140 seconds and then stimulated with an EC20 concentration of an mGluR5 agonist (e.g., glutamate, 3,5-dihydroxyphenylglycine, or quisqualate); 60-80 seconds later an EC80 concentration of agonist was added and readings taken for an additional 40 seconds. Data were collected at 1 Hz.
# human mGluR5 = human mGluR5 (Homo sapiens, UniProt P41594); assay: cell-based
# Experimental: The mGluR5 activity was determined using the metabotropic glutamate receptor activity assays in human embryonic kidney cells as described herein. The mGluR5 activity data for some compounds are shown as the average of at least three experiments with the standard error in these cases. If no error is indicated for the mGluR5 activity, the values given represent the results from a single experiment or the average of two experiments.
# The cells were loaded with a Ca2+-sensitive fluorescent dye (e.g., Fluo-4), and the plates were washed and placed in the FDSS instrument. Test compound was applied to cells 3 seconds after baseline readings were taken. Cells were incubated with the test compounds for 140 seconds and then stimulated with an EC20 concentration of an mGluR5 agonist (e.g., glutamate, 3,5-dihydroxyphenylglycine, or quisqualate); 60-80 seconds later an EC80 concentration of agonist was added and readings taken for an additional 40 seconds. Data were collected at 1 Hz. […] Concentration response curves were generated using a four parameter logistical equation.
# The above described assay was operated in two modes. In the first mode (utilizing a triple add protocol), a range of concentrations of the present compounds were added to cells, followed by two single fixed concentrations of agonist (EC20 followed by EC80). If a compound acted as a potentiator, an EC50 value for potentiation of the EC20 response and a maximum extent of potentiation by the compound at this concentration of agonist was determined by non-linear curve fitting. If a compound acted as an antagonist, an IC50 value for antagonism of the EC80 response and a maximum extent of antagonism by the compound at this concentration of agonist was determined by non-linear curve fitting. In the second mode (utilizing a double add protocol), several fixed concentrations of the present compounds were added to various wells on a plate, followed by a range of concentrations of agonist for each concentration of present compound; the EC50 values for the agonist at each concentration of compound were determined by nonlinear curve fitting. A decrease in the EC50 value of the agonist with increasing concentrations of the present compounds (a leftward shift of the agonist concentration-response curve) is an indication of the degree of mGluR5 positive allosteric modulation at a given concentration of the present compound. An increase in the EC50 value of the agonist with increasing concentrations of the present compounds (a rightward shift of the agonist concentration response curve) is an indication of the degree of mGluR5 antagonism at a given concentration of the present compound. The second mode also indicates whether the present compounds also affect the maximum response to mGluR5 to agonists.
# rat mGluR5 [2] = biological target: T1, rat mGluR5; conditions: read-out: mGluR5, IC50 rat; HEK cells expressing rat mGluR5
# Experimental: as §1, §2, §3, §4
# T1 sequence (P31424 21-1203): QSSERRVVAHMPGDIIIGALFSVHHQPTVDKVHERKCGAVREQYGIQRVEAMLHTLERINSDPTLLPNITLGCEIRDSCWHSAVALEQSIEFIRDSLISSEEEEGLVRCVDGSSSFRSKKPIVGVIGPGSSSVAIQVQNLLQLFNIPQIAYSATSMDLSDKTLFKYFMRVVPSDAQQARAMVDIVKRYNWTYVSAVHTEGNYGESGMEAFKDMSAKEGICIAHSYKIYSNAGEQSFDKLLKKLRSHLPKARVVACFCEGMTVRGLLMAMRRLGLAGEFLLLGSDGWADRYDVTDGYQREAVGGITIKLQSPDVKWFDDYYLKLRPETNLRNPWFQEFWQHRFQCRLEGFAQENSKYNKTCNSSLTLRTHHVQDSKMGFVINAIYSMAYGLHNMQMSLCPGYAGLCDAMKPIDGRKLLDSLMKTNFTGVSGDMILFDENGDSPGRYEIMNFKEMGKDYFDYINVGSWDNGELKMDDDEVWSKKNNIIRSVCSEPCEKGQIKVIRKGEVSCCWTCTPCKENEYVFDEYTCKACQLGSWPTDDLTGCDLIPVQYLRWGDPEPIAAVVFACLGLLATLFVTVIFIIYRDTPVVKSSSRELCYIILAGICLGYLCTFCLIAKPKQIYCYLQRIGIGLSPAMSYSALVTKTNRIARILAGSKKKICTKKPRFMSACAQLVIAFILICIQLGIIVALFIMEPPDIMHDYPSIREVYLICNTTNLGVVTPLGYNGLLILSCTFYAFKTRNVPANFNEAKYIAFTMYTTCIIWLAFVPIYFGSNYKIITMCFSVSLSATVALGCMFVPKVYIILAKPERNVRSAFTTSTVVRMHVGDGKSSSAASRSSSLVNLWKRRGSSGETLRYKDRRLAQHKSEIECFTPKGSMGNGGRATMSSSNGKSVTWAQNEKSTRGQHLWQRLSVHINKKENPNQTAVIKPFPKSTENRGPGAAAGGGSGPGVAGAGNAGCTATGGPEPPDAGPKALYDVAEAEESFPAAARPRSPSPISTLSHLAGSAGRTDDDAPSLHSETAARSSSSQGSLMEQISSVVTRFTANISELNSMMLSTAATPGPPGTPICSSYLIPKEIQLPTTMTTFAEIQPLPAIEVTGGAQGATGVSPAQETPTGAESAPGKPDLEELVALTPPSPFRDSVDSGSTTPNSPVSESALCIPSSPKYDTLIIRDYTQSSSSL
# Sequence of human mGluR5 (P41594 21-1212): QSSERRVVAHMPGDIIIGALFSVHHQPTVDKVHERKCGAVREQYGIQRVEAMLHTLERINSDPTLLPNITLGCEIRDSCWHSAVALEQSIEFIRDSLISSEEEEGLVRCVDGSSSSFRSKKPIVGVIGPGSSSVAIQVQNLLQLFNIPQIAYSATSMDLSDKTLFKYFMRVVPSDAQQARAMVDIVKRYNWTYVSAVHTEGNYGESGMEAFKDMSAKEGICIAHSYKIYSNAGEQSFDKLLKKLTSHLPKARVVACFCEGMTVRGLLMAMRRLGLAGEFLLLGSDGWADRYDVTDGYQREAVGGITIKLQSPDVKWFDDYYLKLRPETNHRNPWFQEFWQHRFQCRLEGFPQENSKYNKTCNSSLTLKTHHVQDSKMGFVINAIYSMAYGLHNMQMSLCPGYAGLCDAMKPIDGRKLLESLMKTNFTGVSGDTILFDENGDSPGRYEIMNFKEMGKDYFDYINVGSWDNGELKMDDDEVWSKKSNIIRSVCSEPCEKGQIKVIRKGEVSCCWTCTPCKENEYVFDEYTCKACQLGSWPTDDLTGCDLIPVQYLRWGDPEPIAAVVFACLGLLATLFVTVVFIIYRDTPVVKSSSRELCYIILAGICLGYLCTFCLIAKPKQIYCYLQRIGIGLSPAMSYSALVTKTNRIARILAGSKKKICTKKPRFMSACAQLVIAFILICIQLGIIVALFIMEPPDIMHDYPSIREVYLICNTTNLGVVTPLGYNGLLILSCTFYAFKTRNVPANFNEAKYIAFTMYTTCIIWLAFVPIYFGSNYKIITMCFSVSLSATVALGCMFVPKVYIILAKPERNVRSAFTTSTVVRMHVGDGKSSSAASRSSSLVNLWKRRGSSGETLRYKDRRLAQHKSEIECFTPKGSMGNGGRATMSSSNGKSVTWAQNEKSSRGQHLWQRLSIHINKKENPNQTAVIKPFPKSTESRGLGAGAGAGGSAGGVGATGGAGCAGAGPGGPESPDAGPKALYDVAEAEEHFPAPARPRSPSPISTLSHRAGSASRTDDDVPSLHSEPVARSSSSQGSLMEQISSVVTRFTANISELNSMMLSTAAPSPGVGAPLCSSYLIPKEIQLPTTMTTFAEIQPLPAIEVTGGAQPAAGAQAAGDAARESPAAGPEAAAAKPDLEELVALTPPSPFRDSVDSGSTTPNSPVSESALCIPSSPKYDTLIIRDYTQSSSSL
Structure (SMILES),IC50 (rat mGluR5 [1]) [nM],further results
Cc1ncccc1Oc1cccc(NC(=O)c2cccc(Cl)c2)c1,2230,
COc1cccc(C(=O)Nc2cccc(Oc3cccnc3)c2)n1,8340,
O=C(Nc1cccc(Oc2cccnc2)c1)c1cscn1,1270,
N#Cc1cccc(C(=O)Nc2cc(Cl)cc(Oc3cncnc3)c2)c1,63 ± 9,
Cc1ccc(Oc2cc(Cl)cc(NC(=O)c3cccc(Cl)c3)c2)cn1,> 10000,
Cc1cccc(C(=O)Nc2cc(Cl)cc(Oc3ccc(C)nc3)c2)c1,6870,
O=C(Nc1cccc(Oc2cncnc2)c1)c1cccc(Cl)c1,75 ± 13,
CN(c1cccnc1)c1cccc(NC(=O)c2cccc(Cl)c2)c1,31 ± 5,
CCCN(c1cccnc1)c1cccc(NC(=O)c2cccc(Cl)c2)c1,5490,
O=C(Nc1cccc(Oc2cccnc2)c1)c1cccc(Cl)c1F,> 10000,
O=C(Nc1cccc(Oc2cncc(F)c2)c1)c1cccc(Br)c1,124,
N#Cc1cc(C(=O)Nc2cc(F)cc(Oc3cncnc3)c2)ccc1F,1640,
O=C(Nc1cc(F)cc(Oc2cncnc2)c1)c1cccc(OC(F)(F)F)c1,417,
O=C(Nc1cc(F)c(F)c(Oc2cncnc2)c1)c1ccc(F)cn1,5420,
CC(C)Oc1ccnc(C(=O)Nc2cc(F)cc(Oc3cncnc3)c2)c1,230,
COc1ccnc(C(=O)Nc2cc(C#N)cc(Oc3cncnc3)c2)c1,63,
CCN(c1cccnc1)c1cc(F)cc(NC(=O)c2cccc(Cl)c2)c1,388,

Structure (SMILES),IC50 (rat mGluR5 [1]) [nM],further results
CCN(c1cccnc1)c1cc(F)cc(NC(=O)c2cccc(Br)c2)c1,656,
CN(c1cncc(Cl)c1)c1cccc(NC(=O)c2cccc(Cl)c2)c1,> 10000,
CCN(c1cncnc1)c1cccc(NC(=O)c2cccc(C#N)c2)c1,43,
CN(c1cncnc1)c1cccc(NC(=O)c2cccc(C#N)c2)c1,84 ± 14,
CN(c1cncnc1)c1cc(NC(=O)c2cccc(Br)c2)ccc1Cl,36,
CN(c1cncnc1)c1cc(NC(=O)c2cccc(Br)c2)ccc1F,14,
CN(c1cncnc1)c1cc(F)cc(NC(=O)c2cccc(F)c2)c1,127,
CN(c1cncnc1)c1cc(NC(=O)c2cccc(F)n2)ccc1F,8.6,
[2H]C([2H])([2H])N(c1cncnc1)c1cc(NC(=O)c2cccc(C#N)c2)ccc1Cl,84,
N#Cc1cc(NC(=O)c2cc(Cl)ccn2)cc(Oc2cncnc2)c1,16,
N#Cc1cc(NC(=O)c2cc(Br)ccn2)cc(Oc2cncnc2)c1,17,
O=C(Nc1cc(Cl)cc(Oc2cncnc2)c1)c1cccc(Cl)c1,,IC50 (human mGluR5): 30 nM
N#Cc1cccc(C(=O)Nc2cccc(Oc3cncc(F)c3)c2)c1,,IC50 (human mGluR5): 249 nM
N#Cc1cc(NC(=O)c2cccc(Br)c2)cc(Oc2cncnc2)c1,,IC50 (human mGluR5): 94 nM
CN(c1cncnc1)c1cc(NC(=O)c2cccc(Cl)c2)ccc1F,,IC50 (human mGluR5): 11 nM
N#Cc1cccc(C(=O)Nc2cc(F)cc(Oc3cncnc3)c2)c1 [drawing 550],61 ± 15,
N#Cc1cccc(C(=O)Nc2cc(F)cc(Oc3cncnc3)c2)c1 [drawing 665],,IC50 (rat mGluR5 [2]): 61 ± 15 nM; IC50 (human mGluR5): 60 nM

# Second part, led by results:
IC50 (rat mGluR5 [1]) [nM],Structure (SMILES),further results
286,Cc1cccc(C(=O)Nc2cccc(Oc3cccnc3)c2)c1,
5990,O=C(Nc1cccc(Oc2cccnc2)c1)c1cccc(C(F)(F)F)c1,
536,N#Cc1cccc(C(=O)Nc2cccc(Oc3cccnc3)c2)c1,
6250,O=C(Nc1cccc(Oc2cccnc2)c1)c1ccc(F)c(Cl)c1,
3530,O=C(Nc1cccc(Oc2cccnc2)c1)c1cccc(F)n1,
1600,O=C(Nc1cccc(Oc2cccnc2)c1)c1nccs1,
4210,Cc1nc(C(=O)Nc2cccc(Oc3cccnc3)c2)cs1,
465,Cc1csc(C(=O)Nc2cccc(Oc3cccnc3)c2)n1,
> 30000,O=C(Nc1cc(Oc2cccnc2)cc(C(F)(F)F)c1)c1cccc(Cl)c1,
111 ± 21,CCN(c1cccnc1)c1cccc(NC(=O)c2cccc(Cl)c2)c1,
83,CN(c1cccnc1)c1cccc(NC(=O)c2cccc(Br)c2)c1,
155,N#Cc1cccc(C(=O)Nc2cccc(Oc3cncc(Cl)c3)c2)c1,
5370,O=C(Nc1cc(Cl)cc(Oc2cncc(F)c2)c1)c1cccc(Cl)n1,
580,N#Cc1cccc(C(=O)Nc2cccc(Oc3cncnc3)c2)c1,
443,N#Cc1cc(NC(=O)c2cccc(C#N)c2)cc(Oc2cncnc2)c1,
53,O=C(Nc1cccc(Oc2cncnc2)c1)c1cccc(Br)c1,
2560,O=C(Nc1cc(F)cc(Oc2cncnc2)c1)c1cccc(F)n1,
311,COc1cccc(C(=O)Nc2cc(F)cc(Oc3cncnc3)c2)c1,
288,O=C(Nc1cc(F)cc(Oc2cncnc2)c1)c1cccc(F)c1,

IC50 (rat mGluR5 [1]) [nM],Structure (SMILES),further results
87,N#Cc1ccc(F)c(C(=O)Nc2cc(F)cc(Oc3cncnc3)c2)c1,
1690,O=C(Nc1cc(F)c(F)c(Oc2cncnc2)c1)c1cc(F)ccn1,
208,CCN(c1cccnc1)c1cccc(NC(=O)c2cccc(Br)c2)c1,
120,CCN(c1cccnc1)c1cccc(NC(=O)c2cccc(C#N)c2)c1,
> 10000,CN(c1cncc(Cl)c1)c1cccc(NC(=O)c2cccc(C#N)c2)c1,
21 ± 4,CN(c1cncnc1)c1cccc(NC(=O)c2cccc(F)c2)c1,
108 ± 32,COc1cccc(C(=O)Nc2cccc(N(C)c3cncnc3)c2)c1,
34 ± 7,CN(c1cncnc1)c1cccc(NC(=O)c2cccc(C(F)(F)F)n2)c1,
138,CN(c1cncnc1)c1cc(Cl)cc(NC(=O)c2cccc(Cl)c2)c1,
59,CN(c1cncnc1)c1cc(NC(=O)c2cccc(C#N)c2)ccc1Cl,
51,CN(c1cncnc1)c1cc(NC(=O)c2cccc(C#N)c2)ccc1F,
80,CN(c1cncnc1)c1ccc(F)c(NC(=O)c2cccc(Cl)c2)c1,
16,CN(c1cncnc1)c1cc(NC(=O)c2cccc(F)c2)ccc1Cl,
9.8,CN(c1cncnc1)c1cc(NC(=O)c2cccc(F)c2)ccc1F,
148,CN(c1cncnc1)c1cc(NC(=O)c2cccc(C#N)c2)cc(F)c1F,
> 10000,CC(C)CN(c1cncnc1)c1cc(NC(=O)c2cccc(Cl)c2)ccc1Cl,
28,CN(c1cncnc1)c1cc(NC(=O)c2cccc(F)c2)cc(F)c1F,
80,CN(c1cncnc1)c1cc(NC(=O)c2cscn2)cc(F)c1F,
2910,CN(c1cncnc1)c1cc(NC(=O)c2cccc(O)n2)ccc1F,
